How the values were obtained:
[1] = biological target: T1, hen egg white lysozyme (HEWL) (Gallus gallus, UniProt P00698); assay: Synchronous fluorescence spectroscopy of HEWL; format: binding; conditions: Δλ = 60 nm
T1 construct: whose 129 amino acid residues are linked together by four disulfide bridges to form a single polypeptide chain; purchased Sigma-Aldrich L6876; host or cells: hen egg white (natural source, per the protein's name)
Description: To obtain synchronous fluorescence spectra, simultaneous scanning of excitation and emission monochromators was performed in such a way as to maintain a constant wavelength interval between them. The changes in the molecular microenvironment of tyrosine and tryptophan residues of HEWL were monitored by fixing the wavelength interval (Δλ = λem − λex) individually at 15 and 60 nm, respectively. The concentrations of HEWL and three metal complexes of diacetylcurcumin were the same as those mentioned for the intrinsic fluorescence spectroscopy.
To investigate the effect of the metal complexes of diacetylcurcumin on the conformation of tyrosine and tryptophan residues of HEWL, synchronous fluorescence spectra of HEWL were recorded alone and in the presence of the metal complexes (electronic supplementary material, figure S5). By fixing the Δλ value, i.e. the difference between excitation and emission wavelengths, at 15 and 60 nm, synchronous fluorescence spectroscopy provides useful information on the microenvironmental changes of tyrosine and tryptophan residues of proteins, respectively. As shown in the electronic supplementary material, figure S5, all three metal complexes of diacetylcurcumin strongly quench the emission fluorescence of HEWL at both 15 and 60 nm. […] At Δλ = 15 nm, no shift in the emission maximum of HEWL is observed, whereas at Δλ = 60 nm, a 2 nm blue shift is observed in the emission spectrum of tryptophan residues of the protein after the interaction with the metal complexes of diacetylcurcumin except for the VO(DAC)2 complex. […] Overall, it can be concluded that the formation of HEWL/metal complex bioconjugates is associated with the binding of three metal complexes of diacetylcurcumin to both tyrosine and tryptophan residues in which the conformational changes can occur only around the tryptophan residues of the protein. It should be noted that the reduction in the polarity of the microregions surrounding tryptophan residues of the protein has already been observed by the intrinsic emission fluorescence titrations (see §3.1.1.).

[2] = biological target: T1, hen egg white lysozyme (HEWL); assay: Förster resonance energy transfer (FRET) binding distance, HEWL donor / metal complex acceptor
From the text: Förster resonance energy transfer (FRET) is a sensitive fluorescence-based approach that acts as a spectroscopic ruler to determine the binding distances within 1–10 nm between interacting molecules. Owing to the good overlap between the emission fluorescence spectrum of HEWL, as donor molecule, and the absorption spectra of three metal complexes of diacetylcurcumin, as acceptor molecules (electronic supplementary material, figure S4), the FRET method was used to obtain distance-dependent information of the donor-acceptor pairs. According to Förster's non-radiative energy transfer theory, the value of energy transfer efficiency, E, can be measured using the following equation:3.5 E=1−F/F0=R06/R06+r^6, where R0 and r represent the critical energy transfer distance and distance between donor and acceptor, respectively. The R0 parameter, the distance for 50% energy transfer, can be also calculated by the following equation:3.6 R06=8.79 × 10^−25[K^2n^−4ϕJ(λ)],
where K^2 is the relative orientation of the donor and acceptor (equal to 2/3 for a random orientation), n denotes the average refractive index of the medium (equal to 1.33), and φ represents the fluorescence quantum yield of the donor (equal to 0.15). […] Therefore, it can be concluded that a non-radiative energy transfer process contributes to the fluorescence quenching of HEWL by the metal complexes of diacetylcurcumin. […]

| microenvironment of tryptophan residues of HEWL [1] | binding distance r between donor and acceptor [2] | energy transfer value (E) [2] [%] | SMILES |
| --- | --- | --- | --- |
| more hydrophobic | least value of the binding distance | 18 | COc1cc(C=CC(=O)C=C([O-])C=Cc2ccc(OC(C)=O)c(OC)c2)ccc1OC(C)=O.COc1cc(C=CC(=O)C=C([O-])C=Cc2ccc(OC(C)=O)c(OC)c2)ccc1OC(C)=O.COc1cc(C=CC(=O)C=C([O-])C=Cc2ccc(OC(C)=O)c(OC)c2)ccc1OC(C)=O.[In+3] [In(DAC)3, indium diacetylcurcumin] |
| remains unaffected | – | – | COc1cc(/C=C/C(=O)C=C([O-])/C=C/c2ccc(OC(C)=O)c(OC)c2)ccc1OC(C)=O.COc1cc(/C=C/C(=O)C=C([O-])/C=C/c2ccc(OC(C)=O)c(OC)c2)ccc1OC(C)=O.[O]=[V+2] [VO(DAC)2, vanadyl diacetylcurcumin] |

— publication PMC10645073, “Interaction of gallium, indium and vanadyl diacetylcurcumin complexes with lysozyme: mechanistic aspects and evaluation of antiamyloidogenic activity” (Royal Society Open Science, 2023)
